The values below come from US7192606B2, “Drugs for treating viral infections” (priority 2004, dated 2007).

The nature of data set [1]: Parallel Artificial Membrane Permeability Assay (PAMPA)-MS. Particulars: hexadecane membrane layer, 4 hr, 50 microM in PBS, LC-MS. On the technique in general: PAMPA measures passive passage across an artificial lipid membrane.
In a further data set the test system is stationary HFF cells. Description: Neutral Red Uptake Assay (toxicity). Particulars: Neutral Red Uptake.
The subject of data set [2] is variola virus (smallpox) isolates. It counts as cell-based.
For a further data set, the system named is Caco-2 cells. The experiment in a line: Caco-2 cell permeability assay. The note with it: for A side % Remaining at 2 hrs: Caco-2, A side; for B side % Remaining at 2 hrs: Caco-2, B side; for A-B: Caco-2, apical to basolateral; for A-B / B-A: 25 microM, 2 hours, 37° C.; for B-A: Caco-2, basolateral to apical.
The subject of data set [3] is cowpox virus. The class given is cell-based.
Data set [4] is described as follows: Neutral Red Uptake Assay (toxicity). The note with it: human, stationary HFF cells.
Data set [5] deals with cowpox virus. The experiment in a line: microbe, parasite or virus in culture. Particulars: HFF. It counts as cell-based.
In data set [6] the test system is cowpox virus. Particulars: cited from earlier work.
Data set [7] in a line: Caco-2 cell permeability assay. The note with it: human, Caco-2. (Caco-2 monolayers are a common model of the intestinal barrier.)
The test system of data set [8] is cowpox virus. Further details: species or system BALB/c mice. Particulars: mouse, in vivo.
For data set [9], the system named is cowpox virus. The class given is cell-based. This is another data set of the same source.
The subject of the next data set is vaccinia virus. The class given is cell-based.

Values after ≈ are worked out from the molar mass of the structure shown. Where two headings read alike, the source gives them in different places.

As to `O=S(=O)(NC12CC3CC(CC(C3)C1)C2)NS(=O)(=O)NC12CC3CC(CC(C3)C1)C2` [Example 1, N,N^1-Bis(tricyclo[3.3.1.1^3,7]dec-1-yl)imidodisulfamide], the permeability in [1] amounted to 0.43 ×10⁻⁶ cm/s. The same compound yielded a CC50 in the data set on stationary HFF cells of 78.9 microgram/mL. For the same compound, the “average EC50” value in data set [2] is reported as 0.10 microgram/mL. Moreover, in the data set with uninfected cells, the CC50 is 43.0 microgram/mL. Further, the “concentration up to which cell monolayers were healthy” value in the data set with monkey (Vero) cells was no less than 30 microgram/mL. In the data set on Caco-2 cells, the “A side % Remaining at 2 hrs” value is reported as 85.05%, the “B side % Remaining at 2 hrs” value is 105.39%, the A-B was 9.07 and the B-A is 18.85. In addition, the Ratio with Caco-2 cells (Caco-2, B-A / A-B) was determined as 2.1. Moreover, in the data set with cowpox virus [3], the “plaques at 1.0 microgram/mL” value was “tiny relative to the untreated ones” and the “plaques at 3.0 microgram/mL” value is recorded as “nearly completely eliminated”. For the same compound, the EC50 with cowpox virus [3] (3 days) was found to be 2.0 microgram/mL.
The term EC90 denotes the point of the concentration-response curve where the effect stands at 90%. `Nc1ccn(C[C@@H](CO)OCP(=O)(O)O)c(=O)n1` [CDV, reference compound] had a CC50 in [4] greater than 100 µg/mL. Besides, it took 18.7 µg/mL (≈ 67 µM) to reach the 90% level in the data set on cowpox virus [5] (EC90). Also, the “active concentration in these cells” value in the data set on cowpox virus [6] is on record as “about 12.0 microgram/mL”.
For orientation: efflux ratio means the permeability from basolateral to apical divided by that in the opposite direction, in the common usage. Turning to `CC(C)NCC(O)COc1cccc2ccccc12` (stereo not drawn) [Propranolol, reference compound], the efflux ratio at 2 h, 25 microM in data set [7] worked out at 1.9. Besides, in the data set on Caco-2 cells, the “A side % Remaining at 2 hrs” value is given as 68.60%, the “B side % Remaining at 2 hrs” value amounted to 88.38%, the A-B was 39.03 and the B-A is on record as 72.42.
With “Sodium N,N^1-(Tricyclo[3.3.1.1^3,7]dec-1-yl)imidodisulfamide [Example 11]”, the “Lung titer on Day 3” value in the data set on cowpox virus [8] is reported as 6.6±1.3. In the data set on cowpox virus [9], the EC50 entry is “EC50: 0.50 microgram/mL;” and the EC90 result was “EC90: 2.10 microgram/mL;”. The same compound returned a CC50 in the data set on stationary HFF cells of 87.6 microgram/mL. For the same compound, in the data set with vaccinia virus, the EC50 entry was “EC50: 0.04 microgram/mL;” and the EC90 result is “EC90: 0.11 microgram/mL;”.
